In PubChem BioAssay AID2060493 (Molecular Pharmacology Branch, DTP, NCI, 2025):
Blank lines part the entries; values can stand above or below the compound they belong to.

Test system: 616215-338-R-J1-PDC tumor spheroids, viability
Experiment: Anticancer human tumor 616215-338-R-J1-PDC patient-derived colon adenocarcinoma cell line growth inhibition [GQUAD]
Conditions: spheroids with HUVEC and MSC; for IC50: curve of first compound; for viability, T/C: stronger effect = lower value
In short: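 Multi-cell-type spheroids of tumor cells with HUVEC and mesenchymal stem cells, treated with drug combinations. Concentrations descend in half-log steps from near clinical Cmax, or from 10 microM where Cmax is unknown; viability read-out.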

[1] = second compound 0.0316 µM, first compound 0.0316 µM
[2] = second compound 0.0316 µM, first compound 0.316 µM
[3] = second compound 0.1 µM, first compound 0.0316 µM
[4] = second compound 0.1 µM, first compound 0.316 µM
[5] = second compound 0.316 µM, first compound 0.0316 µM
[6] = second compound 0.316 µM, first compound 0.316 µM
[7] = second compound 1 µM, first compound 0.0316 µM
[8] = second compound 1 µM, first compound 0.316 µM
[9] = second compound 3.16 µM, first compound 0.0316 µM
[10] = second compound 3.16 µM, first compound 0.316 µM
[11] = second compound 10 µM, first compound 0.0316 µM
[12] = second compound 10 µM, first compound 0.316 µM
[13] = second compound 0.0316 µM, first compound 0.1 µM
[14] = second compound 0.0316 µM, first compound 1 µM
[15] = second compound 0.0316 µM, first compound 3.16 µM
[16] = second compound 0.0316 µM, first compound 10 µM
[17] = second compound 0.1 µM, first compound 0.1 µM
[18] = second compound 0.1 µM, first compound 1 µM
[19] = second compound 0.1 µM, first compound 3.16 µM
[20] = second compound 0.1 µM, first compound 10 µM
[21] = second compound 0.316 µM, first compound 0.1 µM
[22] = second compound 0.316 µM, first compound 1 µM
[23] = second compound 0.316 µM, first compound 3.16 µM
[24] = second compound 0.316 µM, first compound 10 µM
[25] = second compound 1 µM, first compound 0.1 µM
[26] = second compound 1 µM, first compound 1 µM
[27] = second compound 1 µM, first compound 3.16 µM
[28] = second compound 1 µM, first compound 10 µM
[29] = second compound 3.16 µM, first compound 0.1 µM
[30] = second compound 3.16 µM, first compound 1 µM
[31] = second compound 3.16 µM, first compound 3.16 µM
[32] = second compound 3.16 µM, first compound 10 µM
[33] = second compound 10 µM, first compound 0.1 µM
[34] = second compound 10 µM, first compound 1 µM
[35] = second compound 10 µM, first compound 3.16 µM
[36] = second compound 10 µM, first compound 10 µM
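Note: spheroids exposed to agents for 7 days before readout.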
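Throughout, for viability, T/C: percent viability relative to DMSO vehicle control wells taken as 100%.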

- IC50 (second compound 0.0316 µM): 0.0835 µM
- IC50 (second compound 0.1 µM): 0.11 µM
- IC50 (second compound 0.316 µM): < 0.000999 µM
- IC50 (second compound 1 µM): < 0.000999 µM
- IC50 (second compound 3.16 µM): < 0.000999 µM
- IC50 (second compound 10 µM): < 0.000999 µM
SMILES: Cc1[nH]c2ccccc2c1CCNCc1ccc(/C=C/C(=O)NO)cc1 + Cc1cnc(CNC(=O)c2c(=O)c3ccc(N4CCCN(C)CC4)nc3n3c2sc2ccccc23)cn1
- viability, T/C (second compound 0.0316 µM, first compound 0.000999 µM): 98.6%
- viability, T/C (second compound 0.0316 µM, first compound 0.00316 µM): 99.3%
- viability, T/C (second compound 0.0316 µM, first compound 0.00999 µM): 101%
- viability, T/C [1]: 105%
- viability, T/C (second compound 0.0316 µM, first compound 0.0999 µM): 40.5%
- viability, T/C [2]: 24.4%
- viability, T/C (second compound 0.1 µM, first compound 0.000999 µM): 59.6%
- viability, T/C (second compound 0.1 µM, first compound 0.00316 µM): 90%
- viability, T/C (second compound 0.1 µM, first compound 0.00999 µM): 60.8%
- viability, T/C [3]: 66.6%
- viability, T/C (second compound 0.1 µM, first compound 0.0999 µM): 54.4%
- viability, T/C [4]: 6.92%
- viability, T/C (second compound 0.316 µM, first compound 0.000999 µM): 40.8%
- viability, T/C (second compound 0.316 µM, first compound 0.00316 µM): 38.2%
- viability, T/C (second compound 0.316 µM, first compound 0.00999 µM): 38.2%
- viability, T/C [5]: 47.9%
- viability, T/C (second compound 0.316 µM, first compound 0.0999 µM): 39.1%
- viability, T/C [6]: 0.77%
- viability, T/C (second compound 1 µM, first compound 0.000999 µM): 36.5%
- viability, T/C (second compound 1 µM, first compound 0.00316 µM): 23.8%
- viability, T/C (second compound 1 µM, first compound 0.00999 µM): 28.2%
- viability, T/C [7]: 23.2%
- viability, T/C (second compound 1 µM, first compound 0.0999 µM): 13.7%
- viability, T/C [8]: 0.06%
- viability, T/C (second compound 3.16 µM, first compound 0.000999 µM): 27.9%
- viability, T/C (second compound 3.16 µM, first compound 0.00316 µM): 21.8%
- viability, T/C (second compound 3.16 µM, first compound 0.00999 µM): 24.9%
- viability, T/C [9]: 26.6%
- viability, T/C (second compound 3.16 µM, first compound 0.0999 µM): 0.75%
- viability, T/C [10]: 0.11%
- viability, T/C (second compound 10 µM, first compound 0.000999 µM): 24.7%
- viability, T/C (second compound 10 µM, first compound 0.00316 µM): 34.2%
- viability, T/C (second compound 10 µM, first compound 0.00999 µM): 15.5%
- viability, T/C [11]: 17.7%
- viability, T/C (second compound 10 µM, first compound 0.0999 µM): 0.25%
- viability, T/C [12]: 0.21%

SMILES: CC(C)n1c(=O)n(C)c2cnc3cc(F)c(-c4ccc(OCCCN5CCCCC5)nc4)cc3c21 + CN(C)c1ccc(Nc2c3ccc(NC(=O)CCN4CCCC4)cc3nc3cc(NC(=O)CCN4CCCC4)ccc23)cc1
- IC50 (second compound 0.0316 µM): > 10 µM
- IC50 (second compound 0.1 µM): > 10 µM
- IC50 (second compound 0.316 µM): > 10 µM
- IC50 (second compound 1 µM): > 10 µM
- IC50 (second compound 3.16 µM): 9.93 µM
- IC50 (second compound 10 µM): 3.09 µM
- viability, T/C [1]: 110%
- viability, T/C [13]: 112%
- viability, T/C [2]: 96.3%
- viability, T/C [14]: 109%
- viability, T/C [15]: 105%
- viability, T/C [16]: 62.2%
- viability, T/C [3]: 110%
- viability, T/C [17]: 104%
- viability, T/C [4]: 101%
- viability, T/C [18]: 111%
- viability, T/C [19]: 103%
- viability, T/C [20]: 81.1%
- viability, T/C [5]: 97.2%
- viability, T/C [21]: 99.7%
- viability, T/C [6]: 97.8%
- viability, T/C [22]: 103%
- viability, T/C [23]: 121%
- viability, T/C [24]: 95.7%
- viability, T/C [7]: 101%
- viability, T/C [25]: 97.2%
- viability, T/C [8]: 103%
- viability, T/C [26]: 97.9%
- viability, T/C [27]: 111%
- viability, T/C [28]: 83.5%
- viability, T/C [9]: 105%
- viability, T/C [29]: 101%
- viability, T/C [10]: 101%
- viability, T/C [30]: 91.9%
- viability, T/C [31]: 100%
- viability, T/C [32]: 49.6%
- viability, T/C [11]: 95.8%
- viability, T/C [33]: 77.1%
- viability, T/C [12]: 55.6%
- viability, T/C [34]: 64.6%
- viability, T/C [35]: 61.6%
- viability, T/C [36]: 7.08%

SMILES: COc1cc(C2c3cc4c(cc3C(OC3OC5COC(C)OC5C(O)C3O)C3COC(=O)C23)OCO4)cc(OC)c1O (stereo unspecified) + Cc1[nH]c2ccc(F)cc2c1-c1nc2c3cccnc3c3ncccc3c2[nH]1
- IC50 (second compound 0.0316 µM): 0.669 µM
- IC50 (second compound 0.1 µM): 1.05 µM
- IC50 (second compound 0.316 µM): 0.889 µM
- IC50 (second compound 1 µM): 0.584 µM
- IC50 (second compound 3.16 µM): 0.541 µM
- IC50 (second compound 10 µM): 0.72 µM
- viability, T/C [1]: 113%
- viability, T/C [13]: 97.5%
- viability, T/C [2]: 64.9%
- viability, T/C [14]: 41.6%
- viability, T/C [15]: 32.4%
- viability, T/C [16]: 25.4%
- viability, T/C [3]: 105%
- viability, T/C [17]: 101%
- viability, T/C [4]: 67.1%
- viability, T/C [18]: 54.4%
- viability, T/C [19]: 36.2%
- viability, T/C [20]: 28.4%
- viability, T/C [5]: 84.6%
- viability, T/C [21]: 104%
- viability, T/C [6]: 75.7%
- viability, T/C [22]: 47%
- viability, T/C [23]: 31.9%
- viability, T/C [24]: 22.5%
- viability, T/C [7]: 95.9%
- viability, T/C [25]: 97.9%
- viability, T/C [8]: 65.5%
- viability, T/C [26]: 37.5%
- viability, T/C [27]: 41.9%
- viability, T/C [28]: 25.4%
- viability, T/C [9]: 86.2%
- viability, T/C [29]: 96.2%
- viability, T/C [10]: 63.2%
- viability, T/C [30]: 36.5%
- viability, T/C [31]: 40.4%
- viability, T/C [32]: 27.7%
- viability, T/C [11]: 93.8%
- viability, T/C [33]: 87.3%
- viability, T/C [12]: 67.9%
- viability, T/C [34]: 40.8%
- viability, T/C [35]: 34.3%
- viability, T/C [36]: 23%
